The values below come from patent US7253207B2, “Quinones as disease therapies” (Cellgate, Inc., priority 1999, dated 2007).

One assay deals with HT-29. Nature of the assay: MTT assay, HT-29 colon tumor cells. In kind it is cell-based. As to conditions: Homo sapiens, Table 2, treatment time not stated, read-out: ID50 (μM) of different Tumor cells Colon HT-29. How it is done:
(§1) Cell Culture: The human lung adenocarcinoma cell line, A549, and human prostatic cancer cell line, DUPRO, were a gift from Dr. M. Eileen Dolan, University of Chicago, Department of Medicine. A549 was grown in Ham's F-12K medium (Fisher Scientific, Itasca, Ill.) supplemented with 10% fetal bovine serum and 2 mM L-glutamine. DUPRO was grown in RPMI-1640 supplemented with 10% fetal bovine serum. The human colon carcinoma cell line, HT29, and the human breast carcinoma cell line, MCF7, were obtained from the American Type Culture Collection, Rockville, Md. HT29 cells were grown in McCoy's 5A medium (Gibco, BRL, Gaithersburg, Md.) supplemented with 10% fetal bovine serum. MCF7 cells were grown in Richter's Improved Modified Eagle's medium supplemented with 10% fetal bovine serum and 2.2 g/L sodium bicarbonate. The human prostate adenocarcinoma cell lines, LNCAP, PC-3 and DU145, were gifts from Dr. George Wilding, University of Wisconsin Comprehensive Cancer Center and the Department of Medicine, and were grown in Dulbecco's Modified Eagle's medium supplemented with a 5% fetal bovine serum. The malignant glioma cell line, U251MG NCI was obtained from the brain tumor tissue bank at the University of California, San Francisco Department of Neurosurgery, and was grown in Dulbecco's Modified Eagle's medium supplemented with 10% fetal bovine serum. DUPRO, A549 and MCF7 cells were grown in 100 units/mL penicillin and 100 μg/mL streptomycin. HT29 and U251MG NCI cells were grown in 50 g/μL gentamycin. LNCAP, PC-3 and DU145 cells were maintained in 1% antibiotic antimycotic solution (Sigma, St. Louis, Mo.). All cell cultures were maintained at 37° C. in 5% CO2/95% humidified air.
(§2) MTT assay. Exponentially growing monolayer cells were plated in 96 well plates at a density of 500 cells/well and allowed to grow for 24 h. Serially diluted drug solutions were added such that the final drug concentrations in the treatment media were between 0 and 35 μM. Cells were incubated with drug at either 4 hr or 72 hr. After 4 hr and 72 hr treatment, drugs were removed, fresh media (without) drug (100 uL) was added and cells were incubated for 6 days. After six days, 25 μL of a Dulbecco's phosphate-buffered saline solution containing 5 mg/mL of MTT (Thiazolyl blue) (Sigma) was added to each well and incubated for 4 h at 37° C. Then 100 μL of lysis buffer (20% sodium dodecyl sulfate, 50% N,N-dimethylformamide and 0.8% acetic acid, pH 4.7) was added to each well and incubated for an additional 22 h. A microplate reader (E max, Molecular Devices, Sunnyvale, Calif.) set at 570 nm was used to determine the optical density. Results were plotted as a ratio of the optical density in drug treated wells to the optical density in wells treated with vehicle alone. Plotting and estimation of ID50 values were accomplished with manufacturer supplied software.
Background: Tetrazolium assays rely on reduction of a dye to a coloured formazan, in cell work by metabolically active cells.

Another assay deals with A549. Description: MTT assay, A549 lung tumor cells. In kind it is cell-based. As to conditions: Homo sapiens, read-out: ID50 (μM) of different Tumor cells Lung A549. As to the method: as §1, §2
The next assay relates to PC-3. Description: MTT assay, PC-3 prostate tumor cells. The assay is classed as cell-based, human. As to the method:
as §1, §2

The test system of the next assay is MCF7. Description: MTT assay, MCF7 breast tumor cells. In kind it is cell-based, human. As to conditions: Table 2, treatment time not stated. How it is done:
as §1, §2

Another assay has as its system DU145. Description: MTT assay, DU145 prostate tumor cells. In kind it is cell-based, human. As to conditions: Table 1; for ID50 (μM) of different prostate cells DU145: MTT assay, treatment time not stated. How it is done: as §1, §2
The subject of another assay is DUPRO. Nature of the assay: MTT assay, DUPRO prostate tumor cells. In kind it is cell-based, human. Particulars: Table 1, treatment time not stated. How it is done: as §1
MTT assay. Exponentially growing monolayer cells were plated in 96 well plates at a density of 500 cells/well and allowed to grow for 24 h. Serially diluted drug solutions were added such that the final drug concentrations in the treatment media were between 0 and 35 μM. […] A microplate reader (E max, Molecular Devices, Sunnyvale, Calif.) set at 570 nm was used to determine the optical density. […]

In the next assay the test system is U251-MG. Nature of the assay: MTT assay, U251-MG brain tumor cells. The assay is classed as cell-based, human. As to the method:
as §1, with “The malignant glioma cell line, U251MG NCI was obtained from the brain tumor tissue bank at the University of California, San Francisco Department of Neurosurgery, and was grown in Dulbecco's Modified Eagle's medium supplemented with 10% fetal bovine serum. DUPRO, A549 and MCF7 cells were grown in 100 units/mL penicillin and 100 μg/mL streptomycin. HT29 and U251MG NCI cells were grown in 50 g/μL gentamycin. LNCAP, PC-3 and DU145 cells were maintained in 1% antibiotic antimycotic solution (Sigma, St. Louis, Mo.). All cell cultures were maintained at 37° C. in 5% CO2/95% humidified air.” left out
MTT assay. […] A microplate reader (E max, Molecular Devices, Sunnyvale, Calif.) set at 570 nm was used to determine the optical density. […]

The mark [1] stands for this setting: Table 2, treatment time not stated.
The mark [2] stands for this setting: Homo sapiens, PC-3, Table 1, MTT assay, treatment time not stated, read-out: ID50 (μM) of different prostate cells PC-3.

Like-named read-outs stand apart in the source and are kept apart here. *1 amine or outer side, *2 acyl side, *3 side chain or, on linkers, in order; H or OH if unused. Where a SMILES comes first, the peptide text is derived from it. [ ]: non-standard residue; d: D form. The star is where a group is joined. X1 = CC1(C)OC2=C(CC1O*)C(=O)C(=O)c1ccccc12; Morpholide = C1CN(*)CCO1; CO = O=C([*:1])[*:2]; βAla = NCCC(=O)O

On to `O=C(OCCCCCCOC1=CC(=O)C(=O)c2ccccc21)OCCCCCCOC1=CC(=O)C(=O)c2ccccc21` [SL-11053], for which the values for the IC50 with HT-29 and in the assay with A549 (setting [1]) were 2.8 µM and 7.39 µM, respectively.

`O=C1C=C(OCCCCCCOC2=CC(=O)c3ccccc3C2=O)c2ccccc2C1=O` [SL-11065]: the IC50 with PC-3 (setting [2]) worked out at 1.4 µM; in the assay with A549 (setting [1]) it was 2.13 µM.

With `O=C1C=C(OCCCCCCOc2ccc(OC3OC(CO)C(O)C(O)C3O)cc2)c2ccccc2C1=O` (centres unmarked) [SL-11066], the IC50 with PC-3 (setting [2]) and in the assay on A549 (setting [1]) was greater than 31.2 µM each time.

For the compound `NCCCCCC(=O)OCCCCCCOC1=CC(=O)C(=O)c2ccccc21` [SL-11075], the IC50 with PC-3 (setting [2]) stood at 2 µM.

Turning to `CN1CCN(c2ccc3nc(-c4ccc5nc(-c6ccc(O)cc6)[nH]c5c4)[nH]c3c2)CC1` [SL-11063], the IC50 is greater than 31.2 µM with PC-3 (Homo sapiens, PC-3, Table 3, non-quinone structure, MTT assay, read-out: ID50 (μM) of different prostate cells PC-3) and greater than 31.2 µM in the assay on A549 (Table 4, non-quinone compounds).

Consider `CN(C)c1cccc(OC(=O)CCCCOC2=CC(=O)C(=O)c3ccccc32)c1` [SL-11074], for which the IC50 in the assay on PC-3 (setting [2]) is 4.6 µM.

For the compound `CCCCN(CC1=CC(=O)C(=O)c2ccccc21)C(=O)CCC(=O)N1CCOCC1` [SL-11096], the IC50 is 3.6 µM with PC-3 (setting [2]), 3.4 µM in the assay with HT-29 and 17.4 µM in the assay on A549 (setting [1]). Besides, the “ID50 (μM) of different Tumor cells Breast MCF7” value with MCF7 was 3.8 µM.

Consider `CCCCN(CC1=CC(=O)C(=O)c2ccccc21)C(C)=O` [SL-11087], for which the IC50 in the assay on PC-3 (setting [2]) was found to be 2.4 µM; in the assay with HT-29 it was 6.05 µM; with A549 (setting [1]), 19.8 µM. Besides, the “ID50 (μM) of different Tumor cells Breast MCF7” value with MCF7 was determined as 4.0 µM.

On to `CC(C)CC(NC(=O)C(CCCCN)NC(=O)C(CO)NC(=O)N1CCOCC1)C(=O)NC(CCC(N)=O)C(=O)NCCC(=O)OC1CC2=C(OC1(C)C)c1ccccc1C(=O)C2=O` (stereo not drawn) [SL-11147, Morpholino-Ser-Lys-Leu-Gln-β-Ala-β-Lapachone] ({Morpholide-CO}-SKLQ[βAla]-X1; configuration not given here), for which the IC50 in the assay with PC-3 (Table 1, 4 hr, read-out: ID50 (μM) PC-3 (4 hr)) is 6.3 µM; in the assay on PC-3 (Table 1, 72 hr, read-out: ID50 (μM) PC-3 (72 hr)), 1.24 µM; in the assay on DU145 (4 hr, read-out: ID50 (μM) DU145 (4 hr)), 28.1 µM; in the assay on DU145 (72 hr, read-out: ID50 (μM) DU145 (72 hr)), 2.01 µM.

Take `CCCCN(CC1=C(Br)C(=O)C(=O)c2ccccc21)C(C)=O` [SL-11095]: the IC50 was 4.2 µM in the assay with PC-3 (setting [2]), 22.1 µM with HT-29 and greater than 31.2 µM with A549 (setting [1]). The “ID50 (μM) of different Tumor cells Breast MCF7” value in the assay with MCF7 is 20.6 µM.

On to `COC(=O)c1cc(NC(=O)CCCCOC2=CC(=O)C(=O)c3ccccc32)cn1C` [SL-11052], for which, in the assay on A549 (setting [1]), the IC50 is 26.9 µM.

Take `CC(C)(C)C(=O)OC1=CC(=O)C(=O)c2ccccc21` [SL-11054]: the IC50 in the assay with HT-29 and with A549 (setting [1]) was greater than 31.2 µM each time.

Turning to `CCCCN/C=C1\C=C(O)C(=O)c2ccccc21` [SL-11089], in the assay on PC-3 (setting [2]), the IC50 came out at 11 µM. The “ID50 (μM) of different Tumor cells Breast MCF7” value in the assay on MCF7 is greater than 31.25 µM.

With `N#Cc1ccc(OCCCCCCOC2=CC(=O)C(=O)c3ccccc32)cc1` [SL-11062], the IC50 was determined as 1.71 µM in the assay on PC-3 (setting [2]) and 18.6 µM in the assay with A549 (setting [1]).

As to `O=C1C=C(OCCCCCNc2c3ccccc3nc3ccccc23)c2ccccc2C1=O` [SL-11059, Acridine-quinone], the values for the IC50 with PC-3 (setting [2]), in the assay with HT-29 and with A549 (setting [1]) were 4.3 µM, 10.1 µM and 15 µM, respectively.

Regarding `O=C1C=C(CCCCCCCCc2ccc(Nc3c4ccccc4nc4ccccc34)cc2)c2ccccc2C1=O` [SL-11125, Quinone-acridine], the “ID50 (μM) of different prostate cells DUPRO” value in the assay on DUPRO came to 7.9 µM. Besides, the IC50 in the assay with PC-3 (setting [2]) came to 5.9 µM; in the assay with HT-29, 5.7 µM; in the assay on A549 (setting [1]) it was 28 µM. The “ID50 (μM) of different prostate cells DU145” value in the assay with DU145 came to 0.13 µM. For the same compound, the “ID50 (μM) of different Tumor cells Breast MCF7” value in the assay on MCF7 was 5.1 µM.

Take `O=C1C=C(OCCCCCCO)c2ccccc2C1=O` [SL-11051]: the “ID50 (μM) of different prostate cells DUPRO” value with DUPRO amounted to 19.3 µM. In addition, the IC50 with PC-3 (setting [2]) was determined as 17.1 µM; in the assay with HT-29, 20 µM; with A549 (setting [1]), 17.2 µM. The “ID50 (μM) of different prostate cells DU145” value in the assay on DU145 stood at 11.16 µM.

On to `CC1(C)CCC2=C(O1)c1ccccc1C(=O)C2=O` [SL-11058], for which, in the assay with U251-MG (Table 4, non-quinone compounds), the “ID50 (μM) of different Tumor cells Brain U251-MG” value was greater than 31.25 µM.

With `O=C1C=C(OCCCCCCCc2ccc(Nc3c4ccccc4nc4ccccc34)cc2)c2ccccc2C1=O` [SL-11064, Quinone-anilinoacridine], in the assay with DUPRO, the “ID50 (μM) of different prostate cells DUPRO” value amounted to 2.2 µM. In addition, the figures for the IC50 with PC-3 (setting [2]) and in the assay on A549 (setting [1]) were 0.7 µM and 9.3 µM, respectively. Further, the “ID50 (μM) of different prostate cells DU145” value in the assay with DU145 was 0.13 µM.

Take `Cl.O=C1C=C(OCCCCCNC2CCCCC2)c2ccccc2C1=O` [SL-11060]: the “ID50 (μM) of different Tumor cells Brain U251-MG” value with U251-MG (setting [1]) is greater than 31.25 µM. For the same compound, the IC50 in the assay on HT-29 and in the assay with A549 (setting [1]) was greater than 31.2 µM each time. Besides, in the assay on MCF7, the “ID50 (μM) of different Tumor cells Breast MCF7” value was 17.23 µM.

With `O=C1C=C(OCCCCCCOc2ccccc2)c2ccccc2C1=O` [SL-11068], the IC50 with PC-3 (setting [2]) is 1.5 µM; in the assay with A549 (setting [1]) it was 24 µM.

With `CCCCN(CC1=CC(=O)C(=O)c2ccccc21)C(=O)C(F)(F)F` [SL-11088], the IC50 in the assay on PC-3 (setting [2]), in the assay with HT-29 and in the assay on A549 (setting [1]) was greater than 31.2 µM in each case. Further, the “ID50 (μM) of different Tumor cells Breast MCF7” value in the assay with MCF7 was greater than 31.25 µM.
